Read-outs that look alike come from different tables or passages of the source. No end group written: not given here.
Experiments:
[1] = tested on: CHO cells transfected with an empty pcDNA3.1 vector; test: GPCR activation assay, control cells transfected with empty pcDNA3.1 vector; format: cell-based, Chinese hamster; settings: in vitro controls
Protocol: (§1) To obtain direct evidence for NLP-12 activation of CKR-1, we used an in vitro bioluminescence-based approach. CKR-1 was expressed in Chinese hamster ovarian (CHO) cells stably expressing the promiscuous G-protein alpha subunit Gα16 and a bioluminescent calcium indicator, aequorin ([Caers et al., 2014]). The NLP-12 precursor gives rise to two distinct mature peptides, NLP-12–1 and NLP-12–2.
(§2) The GPCR activation assay was performed as previously described ([Caers et al., 2014]; [Peymen et al., 2019]; [Van Sinay et al., 2017]). Briefly, CHO-K1 cells stably expressing the luminescent Ca^2+ indicator aequorin and the promiscuous Gα16 protein (ES-000-A24 cell line, PerkinElmer) were transiently transfected with ckr-1/pcDNA3.1, ckr-2/pcDNA3.1, or empty pcDNA3.1 vector. Cells were transfected with Lipofectamine LTX and Plus reagent (Invitrogen) at 60–80% confluency and grown overnight at 37°C. After 24 hr, they were shifted to 28°C overnight. On the day of the assay, transfected cells were collected in bovine serum albumin (BSA) medium (DMEM/F12 without phenol red with L-glutamine and 15 mM HEPES, Gibco, supplemented with 0.1% BSA), at a density of 5 million cells per ml, and loaded with 5 µM coelenterazine h (Invitrogen) for 4 hr at room temperature. Compound plates containing synthetic peptides in DMEM/BSA were placed in a MicroBeta LumiJet luminometer (PerkinElmer). After loading, the transfected cells were added at a density of 25,000 cells/well, and luminescence was measured for 30 s at a wavelength of 469 nm. After 30 s, 0.1% triton X-100 (Merck) was added to lyse the cells, resulting in a maximal Ca^2+ response that was measured for 30 s. To constitute concentration-response curves of NLP-12 peptides, peptide concentrations ranging from 1 pM to 10 µM were tested in triplicate on 2 independent days.

CKR-2 = CKR-2 (Caenorhabditis elegans, UniProt M1Z894); test: GPCR activation assay, CKR-2 (aequorin bioluminescence calcium, CHO-K1 Gα16); format: cell-based; settings: for ratio of total calcium response: in vitro controls, CKR-2
Protocol: as §1, §2

CKR-1 = biological target: T1, CKR-1 (Caenorhabditis elegans, UniProt P91487); test: GPCR activation assay, CKR-1 (aequorin bioluminescence calcium, CHO-K1 Gα16); format: cell-based; settings: for ratio of total calcium response: in vitro controls, CKR-1
T1 sequence (P91487 1-421): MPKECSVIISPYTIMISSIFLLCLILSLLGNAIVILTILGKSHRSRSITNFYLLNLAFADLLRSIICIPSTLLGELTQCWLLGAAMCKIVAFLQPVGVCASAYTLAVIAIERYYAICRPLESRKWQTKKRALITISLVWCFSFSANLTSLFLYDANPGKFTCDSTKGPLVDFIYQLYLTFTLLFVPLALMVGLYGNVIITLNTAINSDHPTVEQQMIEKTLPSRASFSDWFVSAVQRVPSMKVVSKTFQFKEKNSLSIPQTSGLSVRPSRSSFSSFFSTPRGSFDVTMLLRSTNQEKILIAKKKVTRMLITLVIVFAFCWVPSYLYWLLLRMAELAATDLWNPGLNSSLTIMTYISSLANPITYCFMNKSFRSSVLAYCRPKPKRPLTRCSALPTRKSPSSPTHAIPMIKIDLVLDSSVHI
Protocol: as §1, §2

[2] = tested on: SMD neurons, Caenorhabditis elegans; settings: in vivo
[3] = read-out: 95% confidence interval (EC50, CKR-2 activation), concentration-response curve fit, n=6
[4] = read-out: EC50 (CKR-2 activation, calcium response), CHO-K1 cells, aequorin/Gα16, 1 pM to 10 µM, triplicate on 2 independent days (n=6), luminescence 469 nm, 30 s
[5] = CHO-K1 cells, aequorin/Gα16, 1 pM to 10 µM, triplicate on 2 independent days (n=6), luminescence 469 nm, 30 s, read-out: EC50 (CKR-1 activation, calcium response)
[6] = concentration-response curve fit, n=6, read-out: 95% confidence interval (EC50, CKR-1 activation)

Sequence of CKR-2 (M1Z894 entry or part of it): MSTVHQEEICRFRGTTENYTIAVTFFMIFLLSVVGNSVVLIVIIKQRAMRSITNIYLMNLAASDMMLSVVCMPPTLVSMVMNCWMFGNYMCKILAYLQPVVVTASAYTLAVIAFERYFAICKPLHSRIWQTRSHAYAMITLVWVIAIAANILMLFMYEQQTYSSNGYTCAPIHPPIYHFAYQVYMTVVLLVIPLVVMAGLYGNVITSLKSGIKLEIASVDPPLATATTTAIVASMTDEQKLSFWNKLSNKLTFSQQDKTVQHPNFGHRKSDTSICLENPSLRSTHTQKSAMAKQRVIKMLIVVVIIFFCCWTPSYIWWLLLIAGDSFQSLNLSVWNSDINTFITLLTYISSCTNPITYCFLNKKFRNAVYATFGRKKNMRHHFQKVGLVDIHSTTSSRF

## Nc1ncnc2c1ncn2[C@@H]1O[C@H](COP(=O)(O)OP(=O)(O)OP(=O)(O)O)[C@@H](O)[C@H]1O [ATP]
[1]; replicate 1
  ratio of total calcium response: 0.9381
[1]; replicate 2
  ratio of total calcium response: 0.6003
[1]; replicate 3
  ratio of total calcium response: 0.6268
[1]; replicate 4
  ratio of total calcium response: 0.814
[1]; replicate 5
  ratio of total calcium response: 0.8225
CKR-2; replicate 1
  ratio of total calcium response: 0.7753
CKR-2; replicate 2
  ratio of total calcium response: 0.8315
CKR-2; replicate 3
  ratio of total calcium response: 0.845
CKR-2; replicate 4
  ratio of total calcium response: 0.8913
CKR-2; replicate 5
  ratio of total calcium response: 0.8945
CKR-1; replicate 1
  ratio of total calcium response: 0.6901
CKR-1; replicate 2
  ratio of total calcium response: 0.479
CKR-1; replicate 3
  ratio of total calcium response: 0.5419
CKR-1; replicate 4
  ratio of total calcium response: 0.7243
CKR-1; replicate 5
  ratio of total calcium response: 0.7237

## NCCc1c[nH]cn1 [histamine]
[2]
  reorientations during food searching upon SMD silencing: reduced reorientations with SMD silencing in transgenics

## DGYRPLQF-NH2 [NLP-12-2, DGYRPLQFamide]
CKR-2; [3]
  EC50: 6.43 to 16.7 nM
CKR-2; [4]
  EC50: 10.2 nM
CKR-1; [5]
  EC50: 1.9 nM
CKR-1; [6]
  EC50: 0.93 to 3.77 nM

## DYRPLQF-NH2 [NLP-12-1, DYRPLQFamide]
CKR-2; [3]
  EC50: 5.16 to 12.5 nM
CKR-2; [4]
  EC50: 8 nM
CKR-1; [5]
  EC50: 3.5 nM
CKR-1; [6]
  EC50: 1.79 to 7.07 nM

Source: paper PMC8626090, “A conserved neuropeptide system links head and body motor circuits to enable adaptive behavior” (eLife, 2021)
